From article PMC7038240 (Antimicrobial Agents and Chemotherapy, 2020)
Where two headings read alike, the source gives them in different places.

What was measured:
[1] = system: serine β-lactamases (SBLs); test: Kinetic parameters and Ki, ranges over serine β-lactamases; conditions: CTX-M-15, P99 AmpC, and KPC-2
Description: (§5) A reversible two-step inhibition model was fit to the data.
(§6) Pseudo-first-order rate constants of enzyme inactivation (kobs) were determined in the presence of various inhibitor concentrations by fitting equation 2 to the time courses.(2) P=Vst+(V0−Vs)(1−e^−kt)/k where P is product, Vs is rate at steady state, t is time, V0 is initial velocity, and k is rate of inactivation. A plot of kobs versus the inhibitor concentrations generated a linear plot with a slope of (k2/Ki) and a y intercept of k−2 (equation 3). The reported values were corrected for the substrate concentration and the Km for each substrate-enzyme combination, as defined by the 1 + ([S]/Km) term in equation 4, where S is the substrate concentration, used to obtain the second-order rate constant k2/Ki and the off rate (k−2). The error values reported are standard errors from the fit.(3) kobs=k−2+(k2/Ki)[I]/[1+([S]/Km)]
(§7) The percentage of enzyme activity at each assay point was determined by comparison to the activity of the enzyme in the absence of inhibitor, and the recovery of enzymatic activity was fit to a single exponential with the associated standard deviation.

[2] = target: T1, P99 AmpC (Enterobacter cloacae, UniProt P05364); test: biochemical
Description: as §5, §6, §7

[3] = target: T2, KPC-2 (Klebsiella pneumoniae, UniProt Q9F663); test: biochemical
Description: as §5, §6, §7

[4] = target: OXA-48 (Klebsiella pneumoniae, UniProt Q6XEC0); test: Ki* determination, imipenem substrate
Sequence of OXA-48 (Q6XEC0 23-265, looked up, species assumed): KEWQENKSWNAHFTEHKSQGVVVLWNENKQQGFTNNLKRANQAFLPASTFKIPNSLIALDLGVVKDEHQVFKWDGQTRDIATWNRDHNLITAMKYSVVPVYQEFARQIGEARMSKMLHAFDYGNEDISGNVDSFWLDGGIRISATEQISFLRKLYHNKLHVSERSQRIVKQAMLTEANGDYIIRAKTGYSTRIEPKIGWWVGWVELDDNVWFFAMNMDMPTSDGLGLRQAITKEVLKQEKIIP
Description: as §6

[5] = target: T2, KPC-2; conditions: half-life of active-site occupancy
Description: as §5, §6, §7

[6] = target: T3, CTX-M-15 (Escherichia coli, UniProt Q9EXV5); test: biochemical
T3 sequence (Q9EXV5 29-291, species assumed): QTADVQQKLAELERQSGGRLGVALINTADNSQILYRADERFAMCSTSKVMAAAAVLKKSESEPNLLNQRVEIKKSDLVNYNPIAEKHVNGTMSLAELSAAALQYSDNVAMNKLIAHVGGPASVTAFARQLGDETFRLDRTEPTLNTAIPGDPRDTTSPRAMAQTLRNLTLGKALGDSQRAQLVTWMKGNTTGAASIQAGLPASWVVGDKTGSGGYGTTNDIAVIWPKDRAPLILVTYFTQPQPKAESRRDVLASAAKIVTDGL
Description: as §5, §6, §7

[7] = target: VIM-2 (Escherichia coli, UniProt Q5U7L7); test: Steady-state competitive inhibition, nitrocefin substrate
[8] = target: T3, CTX-M-15; conditions: half-life of active-site occupancy
Description: as §5, §6, §7

[9] = target: T1, P99 AmpC; conditions: half-life of active-site occupancy
Description: as §5, §6, §7

[10] = target: IMP-1 (Serratia marcescens, UniProt P52699); test: Inhibition assay, nitrocefin substrate; conditions: class B
Sequence of IMP-1 (P52699 19-246 limits assumed): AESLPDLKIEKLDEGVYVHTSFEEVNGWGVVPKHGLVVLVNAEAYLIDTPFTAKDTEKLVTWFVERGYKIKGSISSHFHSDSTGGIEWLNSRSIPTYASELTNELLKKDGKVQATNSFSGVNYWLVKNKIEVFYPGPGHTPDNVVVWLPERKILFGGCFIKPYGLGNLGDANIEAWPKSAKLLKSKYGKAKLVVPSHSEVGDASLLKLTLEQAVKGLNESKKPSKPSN

[11] = system: VIM-2 and NDM-1 metallo-β-lactamases; test: Inhibition of VIM-2 and NDM-1 MBLs (modality, reversibility, range); conditions: up to 50 μM
[12] = target: NDM-1 (Klebsiella pneumoniae, UniProt C7C422); test: Steady-state competitive inhibition, cefotaxime substrate
Sequence of NDM-1 (C7C422 29-270, looked up, species assumed): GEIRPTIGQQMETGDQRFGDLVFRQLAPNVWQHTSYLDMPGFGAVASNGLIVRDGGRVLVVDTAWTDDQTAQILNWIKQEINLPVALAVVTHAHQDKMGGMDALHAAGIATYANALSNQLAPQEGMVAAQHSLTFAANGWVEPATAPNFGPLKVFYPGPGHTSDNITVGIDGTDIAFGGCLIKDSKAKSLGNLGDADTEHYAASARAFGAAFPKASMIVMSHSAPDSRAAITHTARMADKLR

[13] = system: P. aeruginosa clinical isolates; test: microbe, parasite or virus in culture; type: cell-based, Pseudomonas aeruginosa
Description: (§1) The antibacterial activity of the cephalosporins alone was included to ascertain the level of potentiation by the partnered BLI. BLIs were tested at a fixed concentration of 4 μg/ml in all combinations except cefepime-tazobactam, where tazobactam was fixed at a concentration of 8 μg/ml ([38]).
(§2) The in vitro antibacterial activity of the β-lactams alone or in combination with the BLIs was determined in cation-adjusted Mueller-Hinton broth (CAMHB) microdilution assays according to CLSI recommendations ([51]). […] The inocula for the broth microdilution assays were prepared by the broth culture method ([51]).

[14] = system: E. coli DH5α producing individual β-lactamases; test: Broth microdilution MIC in engineered strains (BLI fixed at 4 μg/ml); type: cell-based, Escherichia coli; conditions: panel of 34 strains
Description: The spectrum of antibacterial activity of cefepime-taniborbactam and the breadth of inhibitory activity of this next-generation cyclic boronate BLI were assessed in 34 engineered E. coli strains each overproducing an individual β-lactamase and directly compared to those of the clinically approved agent ceftazidime-avibactam. In this manner, the antibacterial activity of the BL-BLI combinations relative to that of the partnered cephalosporins alone provided a quantitative measure of β-lactam potentiation that directly reflects the levels of inhibition of β-lactamase function achieved by addition of BLI. The BLI concentration was fixed at 4 μg/ml, as described in Materials and Methods.
The isogenic strains were used to establish a spectrum of inhibitory activity against 34 β-lactamases that were engineered into E. coli DH5α cells carrying chromosomal AmpC (ESC-1), a non-ESBL enzyme unable to hydrolyze these third- or fourth-generation cephalosporins. […]. The DNA fragments containing the promoter, the signal sequence, and each β-lactamase-coding gene were synthesized and cloned into pTwist Chlor High Copy in DH5α at Twist Bioscience. The individual expression plasmids along with their GenBank accession numbers are listed in Table S2 in the supplemental material and below. The protein sequences of β-lactamases were obtained from the Beta-Lactamase DataBase (www.bldb.eu) ([47]). Expression of the β-lactamases was confirmed by verifying decreased susceptibility to example test antibiotics that are known substrates of the enzymes. E. coli DH5α carrying pTU501, which expressed only the TEM-1 signal sequence from the bla promoter, was used as a control. The plasmid sequences are available through GenBank (Table S2).
(§3) The in vitro antibacterial activity of the β-lactams alone or in combination with the BLIs was determined in cation-adjusted Mueller-Hinton broth (CAMHB) microdilution assays according to CLSI recommendations ([51]). […]. The inocula for the broth microdilution assays were prepared by the broth culture method ([51]). […]

[15] = system: E. coli, K. pneumoniae, and P. aeruginosa reference type isolates; test: MIC against panel of seven reference type isolates; type: cell-based
Description: […]. This panel encompassed 3 E. coli, 2 K. pneumoniae, and 2 P. aeruginosa isolates and included four quality control (QC) isolates for broth microdilution ([37]). […]. Among the β-lactamase-producing Enterobacterales isolates, E. coli NCTC 13353 producing CTX-M-15 and K. pneumoniae BAA-1705 producing KPC-2 are routine QC isolates used for the testing of cefepime-taniborbactam ([37]). […].
as §3

[16] = system: DrugMatrixScreen panel of pharmacological targets; test: DrugMatrixScreen panel (binding, enzymatic, uptake assays; Eurofins/Panlabs); conditions: 100 μM
[17] = target: SHV-5 (Klebsiella pneumoniae, UniProt P0A3M1); test: Ki* determination, cefotaxime substrate
Sequence of SHV-5 (P0A3M1 22-286): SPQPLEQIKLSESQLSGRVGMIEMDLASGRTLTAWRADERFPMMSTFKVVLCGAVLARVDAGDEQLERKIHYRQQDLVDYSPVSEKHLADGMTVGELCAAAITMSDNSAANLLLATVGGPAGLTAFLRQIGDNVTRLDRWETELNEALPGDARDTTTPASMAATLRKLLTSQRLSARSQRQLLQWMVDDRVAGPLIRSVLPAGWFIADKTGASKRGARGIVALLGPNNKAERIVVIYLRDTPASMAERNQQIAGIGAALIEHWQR
Description: as §6

[18] = system: K. pneumoniae; test: microbe, parasite or virus in culture; type: cell-based; conditions: Klebsiella pneumoniae, read-out: MIC
Excerpt: (§4) The antibacterial activity of cefepime-taniborbactam was compared to that of ceftazidime-avibactam, ceftolozane-tazobactam, and cefepime-tazobactam against a diverse panel of Enterobacterales and P. aeruginosa clinical isolates with defined β-lactamase subtypes (see Table S1 in the supplemental material). IMP-producing strains were excluded, as none of the BLI-protected cephalosporins inhibited IMP sufficiently to provide a clinically relevant rescue of the partner β-lactam, a characteristic also shared by approved BLI-protected carbapenems (meropenem-vaborbactam and imipenem-relebactam). […] The antibacterial activity of the cephalosporins alone was included to ascertain the level of potentiation by the partnered BLI. BLIs were tested at a fixed concentration of 4 μg/ml in all combinations except cefepime-tazobactam, where tazobactam was fixed at a concentration of 8 μg/ml ([38]). The collection comprised 143 clinical isolates collected from 2005 and 2018.
as §3

[19] = system: P. aeruginosa; test: microbe, parasite or virus in culture; type: cell-based; conditions: Pseudomonas aeruginosa, read-out: MIC
Excerpt: as §4, §3

[20] = system: E. coli; test: microbe, parasite or virus in culture; type: cell-based; conditions: Escherichia coli, read-out: MIC
Excerpt: as §4, §3

[21] = system: Enterobacterales clinical isolates; test: MIC distributions in panels of clinical isolates (MIC50, MIC90, % susceptible); type: cell-based
Description: as §1, §2

T2 sequence (Q9F663 25-293, looked up, species assumed): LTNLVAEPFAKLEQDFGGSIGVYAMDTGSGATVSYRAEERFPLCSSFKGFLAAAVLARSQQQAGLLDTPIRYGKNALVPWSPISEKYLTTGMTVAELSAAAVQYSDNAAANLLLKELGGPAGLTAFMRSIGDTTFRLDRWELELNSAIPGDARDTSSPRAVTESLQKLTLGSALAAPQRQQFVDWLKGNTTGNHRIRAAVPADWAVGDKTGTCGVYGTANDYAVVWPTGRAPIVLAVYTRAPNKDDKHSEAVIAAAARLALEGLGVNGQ
T1 sequence (P05364 21-381): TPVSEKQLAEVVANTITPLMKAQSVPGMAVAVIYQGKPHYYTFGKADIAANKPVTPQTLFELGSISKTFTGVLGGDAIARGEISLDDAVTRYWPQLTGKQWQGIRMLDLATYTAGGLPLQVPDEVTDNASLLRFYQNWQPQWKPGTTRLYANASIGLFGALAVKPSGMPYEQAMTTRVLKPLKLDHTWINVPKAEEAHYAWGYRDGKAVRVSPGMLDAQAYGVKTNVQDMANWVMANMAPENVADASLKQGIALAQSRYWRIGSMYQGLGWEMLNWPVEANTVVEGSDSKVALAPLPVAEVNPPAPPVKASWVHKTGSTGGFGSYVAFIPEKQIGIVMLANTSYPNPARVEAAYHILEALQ

Structure (SMILES) | Ki [2] [µM] | Ki [3] [µM] | Ki [4] [µM] | t1/2 [5] [min] | Ki [6] [µM] | Ki [7] [µM] | t1/2 [8] [min] | t1/2 [9] [min] | Ki [10] [µM] | inhibition of MBLs [11] | Ki [12] [µM] | modal potentiation of partner cephalosporin MIC [14] [fold] | further results
O=C(O)C[C@@H]1CC[C@H](NC(=O)Cc2cccs2)B(O)O1 [Vaborbactam] | 0.053 ± 0.004 | 0.022 ± 0.002 | 0.35 ± 0.007 | 21 ± 2 | 0.158 ± 0.006 | > 30 | 5 ± 0.2 | 32 ± 3 | > 30 | no significant inhibition | > 30 |  | second-order rate constants (k2/Ki), order of magnitude [1]: ~10^3 M^−1 s^−1; koff [2]: 0.00037 ± 3e-05 s⁻¹; kinact/KI ([2]; pH 7, read-out: k2/Ki): 1800 ± 100 M⁻¹ s⁻¹; koff [3]: 0.00054 ± 5e-05 s⁻¹; kinact/KI ([3]; pH 7, read-out: k2/Ki): 1200 ± 100 M⁻¹ s⁻¹; koff [6]: 0.0023 ± 9e-05 s⁻¹; kinact/KI ([6]; pH 7, read-out: k2/Ki): 1100 ± 100 M⁻¹ s⁻¹
C[C@]1(Cn2ccnn2)[C@H](C(=O)O)N2C(=O)C[C@H]2S1(=O)=O [tazobactam] |  |  |  |  |  |  |  |  |  |  |  |  | fold reduction of cefepime MIC90 by addition of BLI ([13]; 14 isolates, subdivision 3): 2 fold; fold reduction of ceftolozane MIC90 by addition of BLI ([13]; 14 isolates, subdivision 3): 4 fold
NC(=O)[C@@H]1CC[C@@H]2CN1C(=O)N2OS(=O)(=O)O [Avibactam] | 0.013 ± 0.0003 |  |  | 66 ± 4 | 0.011 ± 0.001 | > 30 | 29 ± 1 | 249 ± 19 | > 30 | no significant inhibition | > 30 | 64 | 
NCCN[C@H]1CC[C@H](CC(=O)N[C@H]2Cc3cccc(C(=O)O)c3OB2O)CC1 [Taniborbactam] | 0.002 ± 0.0003 | 0.004 ± 0.001 | 0.35 ± 0.007 | 105 ± 5 | 0.017 ± 0.002 | 0.019 ± 0.001 | 34 ± 2 | 30 ± 3 | ≥ 30 |  |  | 512 | MIC [15]: ≥ 512 mg/L; antibacterial activity alone ([15]; taniborbactam alone): lacks antibacterial activity; inhibition, off-target ([16]; 128 of 129 in vitro assays): ≤ 23%; inhibition ([16]; the one exception, a β-lactamase): > 50%; Ki [17]: 0.003 ± 0.0002 µM; MIC ([18]; ATCC13883, K. pneumoniae ATCC 13883, enzyme content None): 512 mg/L; MIC ([18]; BAA1705, K. pneumoniae BAA 1705, KPC-2): 1020 mg/L; MIC ([19]; ATCC27853, P. aeruginosa ATCC 27853, PDC-5): 1020 mg/L; MIC ([19]; P. aeruginosa CDC-0457, VIM): 1020 mg/L; MIC ([20]; ATCC25922, E. coli ATCC 25922, enzyme content None): 512 mg/L; MIC ([20]; E. coli CDC-0452, NDM): 512 mg/L; MIC ([20]; NCTC13353, E. coli NCTC 13353, CTX-M-15): 512 mg/L; MIC90 ([13]; Pseudomonas aeruginosa, all 41 isolates of P. aeruginosa): 4 mg/L; MIC90 [21]: 1 mg/L
